# Laboratory results as given in patent US10500188B1, “Use of a polyenylpyrrole derivative in preparation of anti-oral cancer drugs” (TZU CHI UNIVERSITY, priority 2019, dated 2019).
# Assays:
# [1] = system: normal oral cells (K2); assay: MTT cell proliferation assay, normal oral cells (K2); format: cell-based; details: 100, 500, 800, 1000 nM, 24 and 48 hr, FIG. 2A
# Experimental: MTT (3-(4,5-dimethylthiazol-2-yl)-2,5-diphenyltetrazolium bromide) assay is used for measuring cell proliferation. Add 3000 OSCC cells (SCC-15 and TW2.6) and 5000 immortalized cells (K2) into each well of a 96-well plate. Next day add the present polyenylpyrrole derivative (F236B) into the respective well and remove culture medium after 24 hours (hr) and 48 hr respectively. Then add MTT dissolved in culture medium (150 μL per well) except the background wells and react for 90 min. Lastly remove solution in the culture plate and add DMSO (150 μL per well) into the culture plate for dissolving the pigment. After being dissolved completely, use the ELISA machine to measure absorbance at 570 nm. […] 2A-2C.
# [2] = system: OSCC cells (SCC-15); assay: MTT cell proliferation assay, OSCC cells (SCC-15); format: cell-based, human
# Experimental: (§1) MTT (3-(4,5-dimethylthiazol-2-yl)-2,5-diphenyltetrazolium bromide) assay is used for measuring cell proliferation. Add 3000 OSCC cells (SCC-15 and TW2.6) and 5000 immortalized cells (K2) into each well of a 96-well plate. Next day add the present polyenylpyrrole derivative (F236B) into the respective well and remove culture medium after 24 hours (hr) and 48 hr respectively. Then add MTT dissolved in culture medium (150 μL per well) except the background wells and react for 90 min. Lastly remove solution in the culture plate and add DMSO (150 μL per well) into the culture plate for dissolving the pigment. After being dissolved completely, use the ELISA machine to measure absorbance at 570 nm. The concentration of the polyenylpyrrole derivative (F236B) used is 10, 50, 80, 100, and 200 nM respectively, as results shown in FIG. 2A-2C.
# Also refer to FIG. 2C, test results of OSCC cells (TW2.6) treated with 10, 50, 80, 100, and 200 nM polyenylpyrrole derivative (F236B) respectively are disclosed. […] Moreover, the present polyenylpyrrole derivative (F236B) not only has effects on the OSCC cells of Western people (SCC-15) but also affects the OSCC cells of Asians (TW2.6). Thus the polyenylpyrrole derivative (F236B) can be widely used in the OSCC cells. In the previous tests for assessment of the effects of natural products on cancer cells, the unit of the concentration unit used is μM. […]
# [3] = system: TW2.6 human oral squamous cell carcinoma (OSCC) cell line; assay: MTT cell proliferation assay, OSCC cells (TW2.6); format: cell-based; details: 10, 50, 80, 100, 200 nM, 24 and 48 hr, FIG. 2C
# Text: The present polyenylpyrrole derivative is used to inhibit oral cancer cells. The oral cancer cell can be oral squamous cell carcinoma (OSCC) cell (SCC-15 cell line). The TW2.6 human oral squamous cell carcinoma (OSCC) cell line obtained from Asian people can also be used in cell proliferation assay.
# as §1
# Also refer to FIG. 2C, test results of OSCC cells (TW2.6) treated with 10, 50, 80, 100, and 200 nM polyenylpyrrole derivative (F236B) respectively are disclosed. […]
# [4] = system: SCC-15 xenograft tumor; assay: Cell-line-derived xenograft model (SCC-15 cell line); format: in vivo, NOD-SCID male mice; details: 1 mg/kg s.c. into neck, vs PBS control, FIG. 2D
# Text: (§2) In order to learn whether in vivo test results of OSCC cells (SCC-15, TW2.6) are consistent with in vitro test results of the same, a cell-line-derived xenograft model (SCC-15 cell line) and a patient-derived xenograft (PDX) model of patients with oral cancers are used to test xenograft tumorigenicity of oral cancer cells and the results are shown in FIG. 2D-2F.
# As to the cell-line-derived xenograft model, six-to-eight-week-old NOD-SCID male mice are used. About 5×10^6 SCC-15 cells are subcutaneously injected into the right abdominal of the mouse. There are two experimental groups. The mouse in the first group (I) is injected with the polyenylpyrrole derivative (F236B) the day after being injected with the OSCC cells. In the second group (II), the mouse is injected with the polyenylpyrrole derivative (F236B) when the tumor grows to a size with a diameter of about […]. The polyenylpyrrole derivative (F236B) at a dose of 1 mg/kg is subcutaneously injected into the neck of the mouse. Samples are taken when the cells grow to a size with a diameter of about 1 cm (21-day).
# [5] = system: patient oral cancer tissue xenograft; assay: Patient-derived xenograft (PDX) model of patients with oral cancers; format: in vivo, NOD-SCID male mice
# Text: as §2
# After approval of the institutional review board (IRB), oral cancer tissues of patients are collected at the Department of Otolaryngology, Hualien Tzu Chi Hospital during the period from Jul. 1, 2016 to Jun. 30, 2017. The PDX model has been established by immersing and washing the samples collected in Penicillin/Streptomycin diluted 2-fold with PBS, and using six-to-eight-week-old NOD-SCID male mice. After injection of a 0.01 mL/g body weight dose of ketamine/xylazine into a mouse, a 1.5×1.5 cm^2 skin surface at the right abdomen of the anesthetized mouse is treated with a depilatory agent to remove hair. Use tincture of iodine as a disinfectant and cut a wound of […] on the mouse skin and suture the wound after tumor tissue being applied. During recovery period, the rearing cage is set on the heating pad and turned back to the rearing rack after recovery. After the surgery, observe the mouse day by day and then get the mouse out of the cage when the tumor reaches a diameter of about 1 cm. […]
# [6] = system: prostate apoptosis response-4 (Par-4); assay: Expression of Par-4 in OSCC cells; format: cell-based; details: FIG. 3C
# Experimental: Also refer to FIG. 3D and FIG. 3E. The results of the SC group (SCC-15 cell line without the knockdown Par-4 gene) treated with 10 nM, 50 nM, 80 nM, 100 nM, and 200 nM polyenylpyrrole derivative (F236B) for 24 hours and 48 hours respectively are shown in FIG. 3D. The results of the Par-4-KD group (SCC-15 cell line with the knockdown Par-4 gene) treated with 10 nM, 50 nM, 80 nM, 100 nM, and 200 nM polyenylpyrrole derivative (F236B) for 24 hours and 48 hours respectively are shown in FIG. 3E.
# [7] = system: SCC-15 cells; assay: Tumor sphere formation on matrigel; format: cell-based, human; details: compared with the Par-4-KD group; FIG. 4
# Experimental: Refer to FIG. 4, the test results of the tumor sphere formation ability of the OSCC cells are shown. In order to culture cells (SCC-15) for tumor sphere formation, each well of a 24-well plate is coated with 150 μL growth factor reduced matrigel, then placed in 4° C. refrigerator and shaken for 15 minutes to make the growth factor reduced matrigel distribute evenly therein. Place in 37° C. incubator for 1 hour. After firm matrigel formation, each well is added with 5000 SCC-15 cells and change culture medium every day.
# [8] = system: SCC-15 cell line without the knockdown Par-4 gene; assay: Migration test, SC group; format: cell-based, human; details: 100 nM and 200 nM; 0, 3, 9 hr; FIG. 5A
# Experimental: Then migration and movement of the Par-4-KD group and the SC group treated with polyenylpyrrole derivative (F236B) is tested and the results are shown in FIG. 5A-5B and FIG. 6.
# The results of the Par-4-KD group (SCC-15 cell line with the knockdown Par-4 gene) treated with 100 nM and 200 nM polyenylpyrrole derivative (F236B) for 0, 3, and 9 hrs respectively are shown in FIG. 5B.
# [9] = system: SCC-15 cells; assay: Transwell assay for movement of tumor cells; format: cell-based, human; details: 24 and 48 hrs, compared with the Par-4-KD group, FIG. 6
# Experimental: Refer to FIG. 6, a transwell assay is used for testing movement of tumor cells. A 24-well transwell chamber with 8.0 μm polycarbonate membrane (6.5 mm) therein is used. Add 100 μL serum free media into the upper layer and 500 μL media containing 10% serum into the lower layer. Then add 5000 cells (SCC-15) into the upper layer of each well, incubate overnight and add the polyenylpyrrole derivative (F236B). Remove the upper layer after 24 hrs and 48 hrs, respectively and wash 2 times with PBS. Add methanol (500 μL per well) at 4° C. for 1 hr for fixation and wash 2 times with PBS. Next, stain with crystal violet for 10 min and wash 2 times with PBS. Lastly observe and count the number of cells moved to the lower layer.
# [10] = system: IL-17RA in OSCC cells (SCC-15); assay: Western blot of IL-17RA expression; format: cell-based, human; details: SCC-15, Western blot, vs DMSO control; FIG. 7
# Experimental: Western blot is used to detect expression of IL-17RA in the OSCC cells (SCC-15) treated with the polyenylpyrrole derivative (F236B). The proteins are separated by SDS-PAGE gel and then transferred to a Polyvinylidene difluoride (PVDF) membrane. Then soak in 5% BSA (bovine serum albumin) for 1 hour for blocking. After removal of BSA and addition of primary antibodies, place the membrane in 4° C. refrigerator with constant shaking for 16 hr and wash 3 times with TBST-Tween20 (TBST) (each takes 15 min). Next add secondary antibodies and shake at room temperature for 1 hour. Then wash 3 times with TBST and each step takes 15 min. Lastly use enhanced chemiluminescent (ECL) reagent (RPN2106 ECL™ Western Blotting Reagent) for imaging and UVP BioSpectrum to detect images. […] Therefore, the reduction effect of the polyenylpyrrole derivative (F236B) on the expression of IL-17RA is associated with the tumor-suppressor function of the polyenylpyrrole derivative (F236B).
compound,measurement,setting,value
CCOc1cc(/C=C/C=C/C=C/C=C/c2[nH]ccc2Cl)oc(=O)c1 [F236B],proliferation of normal oral cells (K2),[1],doesn't affect the proliferation of normal oral cells
same,proliferation of OSCC cells (SCC-15),"[2]; MTT, 10, 50, 80, 100, 200 nM, 24 and 48 hr, FIG. 2B",inhibits proliferation of the OSCC cells (SCC-15)
same,proliferation of OSCC cells in the SC group,"[2]; SCC-15 without Par-4 knockdown, 10-200 nM, 24 and 48 hours, FIG. 3D",apparently reduced
same,proliferation of OSCC cells (TW2.6),[3],inhibits proliferation of the OSCC cells (TW2.6)
same,"tumor volume, first group (I)","[4]; started the day after injection of OSCC cells, 21-day",significantly reduced
same,"tumor volume, second group (II)",[4]; started when tumor diameter about 30 mm,significantly reduced
same,"tumor volume, PDX","[5]; P3 mice, 1 mg/kg s.c. into neck, vs PBS control, FIG. 2E",dramatically decreased
same,weight of the mouse,"[5]; treated with F236B vs PBS, triplicate groups, FIG. 2F",not affected
same,expression of Par-4 in the OSCC cells,[6],enhances expression of Par-4
same,"tumor sphere formation ability, SC group",[7],obviously reduced
same,"migration ability, SC group",[8],clearly reduced
same,movement of the OSCC cells in the SC group,[9],significantly reduced
same,expression of IL-17RA,[10],obviously inhibited
